# Like-named read-outs stand apart in the source and are kept apart here.
# What was measured:
# CRBN-DDB1 = CRBN-DDB1 (Homo sapiens (Human), UniProt Q96SW2); test: Compound binding to CRBN by HTRF assay
# In short: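 Ki calculated via Cheng-Prusoff from geometric-mean EC50 values, after normalizing the HTRF ratio to lenalidomide (active) and DMSO (neutral) controls. Compounds (11 points, 1:3 steps) incubated 30 min at ambient temperature with CRBN-DDB1 2.5 nM, anti-His Tb cryptate and Cy5-thalidomide tracer 100 nM.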
# NEK7 = NEK7 (Homo sapiens (Human), UniProt Q8TDX7+Q96SW2); test: NEK7 NanoBiT degradation assay in Cal51 NEK7 NanoBiT cell line; assay type: cell-based; conditions: Cal51 NEK7 NanoBiT cells, 24 hours; for Dmax: CAL-51
# In short: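 EC50 comes from a 4-parameter fit of control-normalized luminescence. The luminescence reports HiBiT-NEK7 (endogenous knock-in) complemented by stably expressed LgBiT in Cal51 cells after 24 h compound exposure at 37 °C. Final concentrations ran 1 μM to 0.05 nM, with Endurazine substrate present in the medium throughout.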
# [1] = NEK7 degradation, read-out: NanoBiT Dmax
# [2] = NEK7 degradation, read-out: NanoBiT DC50
# Sequence of NEK7 (Q8TDX7 whole entry): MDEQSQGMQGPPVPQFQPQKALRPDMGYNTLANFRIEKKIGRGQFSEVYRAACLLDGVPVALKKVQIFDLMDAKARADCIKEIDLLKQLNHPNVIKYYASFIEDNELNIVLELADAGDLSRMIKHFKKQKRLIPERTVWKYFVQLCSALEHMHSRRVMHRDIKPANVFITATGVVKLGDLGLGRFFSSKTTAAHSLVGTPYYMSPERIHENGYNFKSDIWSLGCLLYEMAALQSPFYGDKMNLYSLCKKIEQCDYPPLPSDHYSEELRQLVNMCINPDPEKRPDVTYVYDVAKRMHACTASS
# Sequence of NEK7 (Q96SW2 whole entry): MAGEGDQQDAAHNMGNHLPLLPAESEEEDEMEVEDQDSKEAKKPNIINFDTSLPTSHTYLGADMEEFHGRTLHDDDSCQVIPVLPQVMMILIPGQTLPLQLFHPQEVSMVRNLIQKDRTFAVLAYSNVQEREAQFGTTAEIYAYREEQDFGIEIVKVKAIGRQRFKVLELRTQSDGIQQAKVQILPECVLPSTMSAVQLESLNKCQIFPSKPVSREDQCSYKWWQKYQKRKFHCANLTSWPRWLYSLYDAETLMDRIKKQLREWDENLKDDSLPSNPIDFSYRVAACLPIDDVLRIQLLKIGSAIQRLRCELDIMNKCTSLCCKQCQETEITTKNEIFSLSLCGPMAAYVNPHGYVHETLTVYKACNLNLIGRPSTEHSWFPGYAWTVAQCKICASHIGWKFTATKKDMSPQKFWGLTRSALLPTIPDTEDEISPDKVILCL
# Sequence of NEK7 (Q16531 2-1140 partner): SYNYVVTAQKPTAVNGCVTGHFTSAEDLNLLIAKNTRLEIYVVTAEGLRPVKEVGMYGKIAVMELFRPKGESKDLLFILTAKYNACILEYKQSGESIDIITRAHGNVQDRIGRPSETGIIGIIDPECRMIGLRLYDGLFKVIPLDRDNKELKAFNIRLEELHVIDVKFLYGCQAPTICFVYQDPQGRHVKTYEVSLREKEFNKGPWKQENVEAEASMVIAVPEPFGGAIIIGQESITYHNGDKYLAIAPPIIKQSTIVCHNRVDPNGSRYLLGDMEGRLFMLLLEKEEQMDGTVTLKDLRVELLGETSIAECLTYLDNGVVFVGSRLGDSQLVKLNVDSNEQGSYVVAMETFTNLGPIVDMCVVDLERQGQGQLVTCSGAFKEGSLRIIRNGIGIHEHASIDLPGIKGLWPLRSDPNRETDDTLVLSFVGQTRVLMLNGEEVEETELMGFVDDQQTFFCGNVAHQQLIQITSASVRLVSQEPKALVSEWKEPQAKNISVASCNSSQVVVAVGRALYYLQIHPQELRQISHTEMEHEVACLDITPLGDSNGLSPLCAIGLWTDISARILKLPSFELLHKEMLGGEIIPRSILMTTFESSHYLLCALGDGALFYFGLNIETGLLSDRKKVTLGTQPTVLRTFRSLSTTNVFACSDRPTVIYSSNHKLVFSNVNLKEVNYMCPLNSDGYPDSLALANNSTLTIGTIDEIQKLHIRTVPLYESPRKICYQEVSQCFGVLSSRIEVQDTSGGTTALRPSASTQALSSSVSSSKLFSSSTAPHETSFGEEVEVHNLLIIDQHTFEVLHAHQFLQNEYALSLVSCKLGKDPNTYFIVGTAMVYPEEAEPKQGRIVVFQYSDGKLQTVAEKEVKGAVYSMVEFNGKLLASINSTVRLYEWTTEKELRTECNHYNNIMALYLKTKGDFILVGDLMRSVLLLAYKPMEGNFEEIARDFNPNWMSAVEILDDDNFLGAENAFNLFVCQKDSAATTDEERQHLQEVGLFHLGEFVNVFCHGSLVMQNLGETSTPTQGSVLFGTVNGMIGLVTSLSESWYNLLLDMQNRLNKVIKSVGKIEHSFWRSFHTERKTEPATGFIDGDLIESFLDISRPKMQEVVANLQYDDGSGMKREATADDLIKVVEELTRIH
# Sequence of CRBN-DDB1 (Q96SW2 whole entry): as the sequence (Q96SW2 whole entry) above
# Sequence of CRBN-DDB1 (Q16531 whole entry partner): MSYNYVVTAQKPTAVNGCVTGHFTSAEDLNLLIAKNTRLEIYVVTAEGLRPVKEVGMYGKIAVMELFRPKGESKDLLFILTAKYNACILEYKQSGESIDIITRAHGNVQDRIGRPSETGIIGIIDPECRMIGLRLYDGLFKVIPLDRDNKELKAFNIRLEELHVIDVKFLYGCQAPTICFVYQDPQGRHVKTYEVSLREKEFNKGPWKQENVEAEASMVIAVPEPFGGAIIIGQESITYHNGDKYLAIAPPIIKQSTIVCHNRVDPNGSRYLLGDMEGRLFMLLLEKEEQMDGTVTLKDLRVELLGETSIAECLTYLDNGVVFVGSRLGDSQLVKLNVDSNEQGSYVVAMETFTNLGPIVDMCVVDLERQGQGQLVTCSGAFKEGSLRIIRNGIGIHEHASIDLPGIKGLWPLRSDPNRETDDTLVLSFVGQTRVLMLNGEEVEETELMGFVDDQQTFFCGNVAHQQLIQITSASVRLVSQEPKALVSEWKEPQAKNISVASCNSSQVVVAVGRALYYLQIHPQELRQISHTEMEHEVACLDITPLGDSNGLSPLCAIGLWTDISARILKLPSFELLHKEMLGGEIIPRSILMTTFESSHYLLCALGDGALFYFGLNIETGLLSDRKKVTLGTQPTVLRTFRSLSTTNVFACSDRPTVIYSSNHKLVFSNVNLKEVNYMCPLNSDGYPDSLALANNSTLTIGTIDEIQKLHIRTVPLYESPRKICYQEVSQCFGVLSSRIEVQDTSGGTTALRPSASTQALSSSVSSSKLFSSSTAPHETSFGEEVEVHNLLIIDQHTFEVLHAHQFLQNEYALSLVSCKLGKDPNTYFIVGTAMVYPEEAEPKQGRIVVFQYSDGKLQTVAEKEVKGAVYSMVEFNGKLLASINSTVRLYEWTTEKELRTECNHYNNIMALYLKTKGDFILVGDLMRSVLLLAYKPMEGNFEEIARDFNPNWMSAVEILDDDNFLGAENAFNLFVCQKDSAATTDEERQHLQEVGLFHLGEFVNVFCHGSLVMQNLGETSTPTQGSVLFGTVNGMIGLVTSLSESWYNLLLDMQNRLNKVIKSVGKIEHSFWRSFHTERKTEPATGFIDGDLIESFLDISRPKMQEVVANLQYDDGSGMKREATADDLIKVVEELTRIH
EC50 (CRBN-DDB1) [nM],"EC50 (CRBN-DDB1; HTRF class, Cereblon binding) [nM]",Dmax (NEK7; read-out: NEK7 NanoBiT Dmax) [%],Dmax (NEK7; [1]) [%],DC50 (NEK7; read-out: NEK7 NanoBiT DC50) [nM],DC50 (NEK7; [2]) [nM],SMILES
100,100 to 1000,93,> 75,4,≤ 100,CC(F)(F)c1cnc(C(C)(C)C(=O)NCc2cc(Cl)c(C3CCC(=O)NC3=O)c(Cl)c2)nc1 (stereo not drawn) [Compound 187]
80,≤ 100,93,> 75,4,≤ 100,CC(C)(C(=O)NCc1cc(Cl)c(C2CCC(=O)NC2=O)c(Cl)c1)c1ncc(OC(F)F)cn1 (stereo not drawn) [Compound 188]
70,≤ 100,94,> 75,4,≤ 100,COc1cnc(C(C)(C)C(=O)NCc2cc(Cl)c(C3CCC(=O)NC3=O)c(Cl)c2)nc1 (stereo not drawn) [Compound 189]
90,≤ 100,90,> 75,6,≤ 100,CC(C)(C(=O)NCc1cc(Cl)c(C2CCC(=O)NC2=O)c(Cl)c1)c1cc2cccnc2cn1 (stereo not drawn) [Compound 190]
170,100 to 1000,85,> 75,13,≤ 100,CC(C)(C(=O)NCc1cc(Cl)c(C2CCC(=O)NC2=O)c(Cl)c1)c1ccc(C(F)(F)F)nn1 (stereo not drawn) [Compound 191]
80,≤ 100,87,> 75,10,≤ 100,CC(C)(C(=O)NCc1cc(Cl)c(C2CCC(=O)NC2=O)c(Cl)c1)c1nc(C2CC2)co1 (stereo not drawn) [Compound 193]
120,100 to 1000,96,> 75,1,≤ 100,CC(C)(C(=O)NCc1cc(Cl)c(C2CCC(=O)NC2=O)c(Cl)c1)c1ncc(Cl)cn1 (stereo not drawn) [Compound 194]
220,100 to 1000,63,50 to 75,138,100 to 1000,CC(C)(C(=O)NCc1cc(Cl)c(C2CCC(=O)NC2=O)c(Cl)c1)c1ncc(CC(F)(F)F)cn1 (stereo not drawn) [Compound 195]
310,100 to 1000,90,> 75,9,≤ 100,CC(C)(C(=O)NCc1cc(Cl)c(C2CCC(=O)NC2=O)c(Cl)c1)c1cnc(C(F)F)cn1 (stereo not drawn) [Compound 196]
120,100 to 1000,87,> 75,13,≤ 100,Cc1coc(C(C)(C)C(=O)NCc2cc(Cl)c(C3CCC(=O)NC3=O)c(Cl)c2)n1 (stereo not drawn) [Compound 197]
130,100 to 1000,83,> 75,22,≤ 100,CC(C)(C(=O)NCc1cc(Cl)c(C2CCC(=O)NC2=O)c(Cl)c1)c1nocc1C1CC1 (stereo not drawn) [Compound 198]
140,100 to 1000,67,50 to 75,99,≤ 100,CC(C)(C(=O)NCc1cc(Cl)c(C2CCC(=O)NC2=O)c(Cl)c1)c1ncoc1C(F)(F)F (stereo not drawn) [Compound 199]
170,100 to 1000,74,50 to 75,46,≤ 100,CC(C)(C(=O)NCc1cc(Cl)c(C2CCC(=O)NC2=O)c(Cl)c1)c1nnc(C(F)F)o1 (stereo not drawn) [Compound 200]
140,100 to 1000,93,> 75,7,≤ 100,Cc1conc1C(C)(C)C(=O)NCc1cc(Cl)c(C2CCC(=O)NC2=O)c(Cl)c1 (stereo not drawn) [Compound 201]
200,100 to 1000,94,> 75,4,≤ 100,CC(C)(O)c1ccc(C(C)(C)C(=O)NCc2cc(Cl)c(C3CCC(=O)NC3=O)c(Cl)c2)nn1 (stereo not drawn) [Compound 203]
80,≤ 100,98,> 75,1,≤ 100,COc1ccc(C(C)(C)C(=O)NCc2cc(Cl)c(C3CCC(=O)NC3=O)c(Cl)c2)nn1 (stereo not drawn) [Compound 204]
110,100 to 1000,97,> 75,1,≤ 100,Cc1ccc(C(C)(C)C(=O)NCc2cc(Cl)c(C3CCC(=O)NC3=O)c(Cl)c2)cn1 (stereo not drawn) [Compound 205]

EC50 (CRBN-DDB1) [nM],"EC50 (CRBN-DDB1; HTRF class, Cereblon binding) [nM]",Dmax (NEK7; read-out: NEK7 NanoBiT Dmax) [%],Dmax (NEK7; [1]) [%],DC50 (NEK7; read-out: NEK7 NanoBiT DC50) [nM],DC50 (NEK7; [2]) [nM],SMILES
100,100 to 1000,85,> 75,18,≤ 100,CC(C)(C(=O)NCc1cc(Cl)c(C2CCC(=O)NC2=O)c(Cl)c1)c1cnc(CO)cn1 (stereo not drawn) [Compound 206]
90,≤ 100,82,> 75,19,≤ 100,CC1(c2cnc(C(C)(C)C(=O)NCc3cc(Cl)c(C4CCC(=O)NC4=O)c(Cl)c3)nc2)CC1 (stereo not drawn) [Compound 207]
170,100 to 1000,56,50 to 75,345,100 to 1000,CC(C)(C(=O)NCc1cc(Cl)c(C2CCC(=O)NC2=O)c(Cl)c1)c1nnc(C(F)(F)F)o1 (stereo not drawn) [Compound 208]
90,≤ 100,97,> 75,1,≤ 100,COc1cnc(C(C)(C)C(=O)NCc2cc(Cl)c(C3CCC(=O)NC3=O)c(Cl)c2)cn1 (stereo not drawn) [Compound 209]
460,100 to 1000,96,> 75,2,≤ 100,CC(C)(C(=O)NCc1cc(Cl)c(C2CCC(=O)NC2=O)c(Cl)c1)c1ccc(OC(F)F)nn1 (stereo not drawn) [Compound 210]
900,100 to 1000,90,> 75,8,≤ 100,CC(C)(C(=O)NCc1cc(Cl)c(C2CCC(=O)NC2=O)c(Cl)c1)C1CCCCC1 (stereo not drawn) [Compound 211]
70,≤ 100,90,> 75,6,≤ 100,Cc1nc(C(C)(C)C(=O)NCc2cc(Cl)c(C3CCC(=O)NC3=O)c(Cl)c2)oc1C (stereo not drawn) [Compound 212]
80,≤ 100,78,> 75,33,≤ 100,CC(C)(C(=O)NCc1cc(Cl)c(C2CCC(=O)NC2=O)c(Cl)c1)C1CCCC1 (stereo not drawn) [Compound 213]
120,100 to 1000,65,50 to 75,118,100 to 1000,CC(C)(C(=O)NCc1cc(Cl)c(C2CCC(=O)NC2=O)c(Cl)c1)c1nccc(CO)n1 (stereo not drawn) [Compound 215]
100,≤ 100,82,> 75,21,≤ 100,COc1nc(C(C)(C)C(=O)NCc2cc(Cl)c(C3CCC(=O)NC3=O)c(Cl)c2)ncc1C (stereo not drawn) [Compound 216]
150,100 to 1000,56,50 to 75,327,100 to 1000,COCc1ccnc(C(C)(C)C(=O)NCc2cc(Cl)c(C3CCC(=O)NC3=O)c(Cl)c2)n1 (stereo not drawn) [Compound 217]
80,≤ 100,71,50 to 75,49,≤ 100,CC(C)(C(=O)NCc1cc(Cl)c(C2CCC(=O)NC2=O)c(Cl)c1)c1nc(C2CC2)no1 (stereo not drawn) [Compound 218]
80,≤ 100,72,50 to 75,47,≤ 100,CC(C)(C(=O)NCc1cc(Cl)c(C2CCC(=O)NC2=O)c(Cl)c1)c1nc(C(F)F)no1 (stereo not drawn) [Compound 219]
150,100 to 1000,91,> 75,8,≤ 100,CC(C)(C(=O)NCc1cc(Cl)c(C2CCC(=O)NC2=O)c(Cl)c1)c1nocc1C(F)(F)F (stereo not drawn) [Compound 220]
80,≤ 100,83,> 75,19,≤ 100,"COc1cnc(C(C)(C)C(=O)NCc2cc(Cl)c(C3CCC(=O)NC3=O)c(Cl)c2)nc1C (stereo not drawn) [Compound 221, N-(3,5-dichloro-4-(2,6-dioxopiperidin-3-yl)benzyl)-2-(5-methoxy-4-methylpyrimidin-2-yl)-2-methylpropanamide]"
160,100 to 1000,73,50 to 75,54,≤ 100,"COCc1cnc(C(C)(C)C(=O)NCc2cc(Cl)c(C3CCC(=O)NC3=O)c(Cl)c2)cn1 (stereo not drawn) [Compound 222, N-(3,5-dichloro-4-(2,6-dioxopiperidin-3-yl)benzyl)-2-(5-(methoxymethyl)pyrazin-2-yl)-2-methylpropanamide]"
90,≤ 100,91,> 75,8,≤ 100,"CC(C)(C(=O)NCc1cc(Cl)c(C2CCC(=O)NC2=O)c(Cl)c1)c1ccc(OC(F)(F)F)nn1 (stereo not drawn) [Compound 223, N-(3,5-dichloro-4-(2,6-dioxopiperidin-3-yl)benzyl)-2-methyl-2-(6-(trifluoromethoxy)pyridazin-3-yl)propanamide]"
